Non-standard residues stand in square brackets, D forms with d. *: point of attachment. Phe(F5) = N[C@@H](Cc1c(F)c(F)c(F)c(F)c1F)C(=O)O; Phe(3-Cl) = N[C@@H](Cc1cccc(Cl)c1)C(=O)O; Phe(4-F) = N[C@@H](Cc1ccc(F)cc1)C(=O)O; ACC = NC(=O)Cc1cc(=O)oc2cc(N*)ccc12; hArg = N=C(N)NCCCC[C@H](N)C(=O)O; ClZ = O=C(OCc1ccccc1Cl)*; Orn = NCCC[C@H](N)C(=O)O; Dab = NCC[C@H](N)C(=O)O; Dap = NC[C@H](N)C(=O)O; Mob = COc1ccc(C*)cc1; Meb = Cc1ccc(C*)cc1; OBn = c1ccc(CO*)cc1; Bn = c1ccc(C*)cc1
Columns and labels:
Type in all cases: biochemical
cathepsin V = biological target: T1, cathepsin V (Homo sapiens, UniProt O60911); test: Kinetic parameters of ACC substrates with cathepsin V; conditions: Fig. 5B; pH 5.5, 37 °C; cathepsin V 10–20 nM; triplicate, SD below 15%
T1 construct: made in house
Method: (§1) All kinetic experiments were performed using fMax (Molecular Devices) and CLARIOStar (BMG LABTECH) spectrofluorimeters operating in kinetic mode using 96-well plates. ACC-labeled substrates were screened using 355 nm and 460 nm wavelengths (excitation and emission, respectively). […] The buffer was prepared at room temperature and the enzyme kinetic studies were performed at 37 °C.
(§2) Classic substrate velocity plots were analyzed according to Michaelis–Menten kinetics and a detailed protocol for the determination of kinetic parameters for ACC-tagged substrates is found elsewhere.[56] […] Experiments were repeated at least three times and results are presented as an average. The SDs were below 15%.

cathepsin S = biological target: T2, cathepsin S (Homo sapiens, UniProt P25774); test: Kinetic parameters of ACC substrates with cathepsin S; conditions: Fig. 5B; pH 5.5, 37 °C; cathepsin S 5–20 nM; triplicate, SD below 15%
T2 construct: made in house
Method: as §1, §2

cathepsin K = biological target: T3, cathepsin K (Homo sapiens, UniProt P43235); test: Kinetic parameters of ACC substrates with cathepsin K; conditions: Fig. 5B; pH 5.5, 37 °C; cathepsin K 5–20 nM; triplicate, SD below 15%
T3 construct: made in house
T3 sequence (P43235 115-329): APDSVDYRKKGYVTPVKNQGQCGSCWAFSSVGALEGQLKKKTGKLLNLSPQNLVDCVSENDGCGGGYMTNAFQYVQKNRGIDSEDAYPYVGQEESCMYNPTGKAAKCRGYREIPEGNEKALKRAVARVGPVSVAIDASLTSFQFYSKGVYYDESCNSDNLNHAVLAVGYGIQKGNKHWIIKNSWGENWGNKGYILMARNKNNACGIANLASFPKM
Method: as §1, §2

cathepsin B = biological target: T4, cathepsin B (Homo sapiens, UniProt P07858); test: Kinetic parameters of ACC substrates with cathepsin B; conditions: Fig. 5B; pH 5.5, 37 °C; cathepsin B 4–15 nM; triplicate, SD below 15%
T4 construct: made in house
Method: as §1, §2

cathepsin L = biological target: T5, cathepsin L (Homo sapiens, UniProt P07711); test: Kinetic parameters of ACC substrates with cathepsin L; conditions: for kcat/KM Cath-L: Fig. 5B, triplicate; for Km: read-out: KM; for hydrolysis by cathepsin L relative to Ac-His-Arg-Phe-Arg-ACC substrate: kcat/KM compared with reference substrate
T5 construct: made in house
Method: as §1, §2

[1] = pH 5.5, 37 °C, cathepsin L 0.1–0.5 nM, SD below 15%
[2] = Fig. 4B, ACC substrates, 100 mM sodium acetate, 100 mM NaCl, 10 mM DTT, 1 mM EDTA, pH 5.5, 37 °C, cathepsin L 0.1–0.5 nM, average of at least three, SD below 15%
[3] = Table S2, cathepsin L, four independent experiments, S.D. below 15%

T5 sequence (P07711 114-333): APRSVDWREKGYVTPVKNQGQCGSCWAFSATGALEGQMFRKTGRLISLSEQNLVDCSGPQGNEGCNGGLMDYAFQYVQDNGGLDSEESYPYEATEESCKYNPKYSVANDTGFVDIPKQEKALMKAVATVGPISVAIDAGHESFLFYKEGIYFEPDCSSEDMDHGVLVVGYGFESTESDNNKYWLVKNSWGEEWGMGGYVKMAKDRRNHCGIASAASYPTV
T2 sequence (P25774 115-331): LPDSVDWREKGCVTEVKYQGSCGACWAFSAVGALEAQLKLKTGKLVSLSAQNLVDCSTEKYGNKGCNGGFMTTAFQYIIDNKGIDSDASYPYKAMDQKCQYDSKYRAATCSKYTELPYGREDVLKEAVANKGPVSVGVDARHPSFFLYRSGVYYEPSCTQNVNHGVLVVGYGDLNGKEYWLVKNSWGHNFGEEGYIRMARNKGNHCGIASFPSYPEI
T1 sequence (O60911 114-334): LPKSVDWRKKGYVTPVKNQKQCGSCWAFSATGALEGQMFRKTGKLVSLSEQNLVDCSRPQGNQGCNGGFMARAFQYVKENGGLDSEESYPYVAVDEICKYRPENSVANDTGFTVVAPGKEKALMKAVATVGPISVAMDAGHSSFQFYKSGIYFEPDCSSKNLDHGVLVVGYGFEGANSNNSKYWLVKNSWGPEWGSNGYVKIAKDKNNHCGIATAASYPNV

Row | Substance | kcat/KM Cath-V (cathepsin V) | kcat/KM Cath-S (cathepsin S) | kcat/KM Cath-K (cathepsin K) | kcat/KM Cath-B (cathepsin B) | kcat/KM Cath-L (cathepsin L; [1]) | kcat/KM (cathepsin L; [2]) | kcat (cathepsin L; [3]) | Km (cathepsin L; [3]) | hydrolysis by cathepsin L relative to Ac-His-Arg-Phe-Arg-ACC substrate (cathepsin L) | kcat/KM (cathepsin L; [3])
1 | Ac-H[dK][Phe(F5)]R-{ACC} (SMILES CC(=O)N[C@@H](Cc1c[nH]cn1)C(=O)N[C@H](CCCCN)C(=O)N[C@@H](Cc1c(F)c(F)c(F)c(F)c1F)C(=O)N[C@@H](CCCNC(=N)N)C(=O)Nc1ccc2c(CC(N)=O)cc(=O)oc2c1) | 1,010 M^-1s^-1 | < 10 M⁻¹ s⁻¹ | 29 M⁻¹ s⁻¹ | 175 M⁻¹ s⁻¹ | 715,000 M^-1s^-1 |  |  |  |  | 
2 | Ac-[Dap][Orn][Phe(3-Cl)]C(Mob)-{ACC} (SMILES COc1ccc(CSC[C@H](NC(=O)[C@H](Cc2cccc(Cl)c2)NC(=O)[C@H](CCCN)NC(=O)[C@H](CN)NC(C)=O)C(=O)Nc2ccc3c(CC(N)=O)cc(=O)oc3c2)cc1) |  |  |  |  |  | 48,350,000 M^-1s^-1 | 193 s⁻¹ | 4.15 µM | ~4 times | 
3 | Ac-H[dV][Phe(F5)]C(Mob)-{ACC} (SMILES COc1ccc(CSC[C@H](NC(=O)[C@H](Cc2c(F)c(F)c(F)c(F)c2F)NC(=O)[C@H](NC(=O)[C@H](Cc2c[nH]cn2)NC(C)=O)C(C)C)C(=O)Nc2ccc3c(CC(N)=O)cc(=O)oc3c2)cc1) | 2,070 M^-1s^-1 | < 10 M⁻¹ s⁻¹ | < 10 M⁻¹ s⁻¹ | 3,800 M^-1s^-1 | 2,135,000 M^-1s^-1 |  |  |  |  | 
4 | Ac-[Dap][Orn][Phe(3-Cl)][hArg]-{ACC} (SMILES CC(=O)N[C@@H](CN)C(=O)N[C@@H](CCCN)C(=O)N[C@@H](Cc1cccc(Cl)c1)C(=O)N[C@@H](CCCCNC(=N)N)C(=O)Nc1ccc2c(CC(N)=O)cc(=O)oc2c1) |  |  |  |  |  | 30,500,000 M^-1s^-1 | 123 s⁻¹ | 4.21 µM |  | 30,500,000 M-1s-1
5 | Ac-[Dap][Orn][Phe(3-Cl)]R-{ACC} (SMILES CC(=O)N[C@@H](CN)C(=O)N[C@@H](CCCN)C(=O)N[C@@H](Cc1cccc(Cl)c1)C(=O)N[C@@H](CCCNC(=N)N)C(=O)Nc1ccc2c(CC(N)=O)cc(=O)oc2c1) |  |  |  |  |  | 36,310,000 M^-1s^-1 | 195 s⁻¹ | 5.38 µM |  | 36,310,000 M-1s-1
6 | Ac-His-DVal-Phe(F5)-Nle(OBzl)-ACC | 3,820 M^-1s^-1 | 508 M⁻¹ s⁻¹ | 906 M⁻¹ s⁻¹ | 2,500 M^-1s^-1 | 2,290,000 M^-1s^-1 |  |  |  |  | 
7 | Ac-H[dV][Phe(4-F)]R-{ACC} (SMILES CC(=O)N[C@@H](Cc1c[nH]cn1)C(=O)N[C@@H](C(=O)N[C@@H](Cc1ccc(F)cc1)C(=O)N[C@@H](CCCNC(=N)N)C(=O)Nc1ccc2c(CC(N)=O)cc(=O)oc2c1)C(C)C) | 14,550 M^-1s^-1 | 1,800 M^-1s^-1 | 2,580 M^-1s^-1 | 3,100 M^-1s^-1 | 6,991,000 M^-1s^-1 |  |  |  |  | 
8 | Ac-[Dap][Orn][Phe(3-Cl)]E(OBn)-{ACC} (SMILES CC(=O)N[C@@H](CN)C(=O)N[C@@H](CCCN)C(=O)N[C@@H](Cc1cccc(Cl)c1)C(=O)N[C@@H](CCC(=O)OCc1ccccc1)C(=O)Nc1ccc2c(CC(N)=O)cc(=O)oc2c1) |  |  |  |  |  | 34,270,000 M^-1s^-1 | 188 s⁻¹ | 5.67 µM |  | 34,270,000 M-1s-1
9 | Ac-H[dV][Phe(F5)]C(Meb)-{ACC} (SMILES CC(=O)N[C@@H](Cc1c[nH]cn1)C(=O)N[C@@H](C(=O)N[C@@H](Cc1c(F)c(F)c(F)c(F)c1F)C(=O)N[C@@H](CSCc1ccc(C)cc1)C(=O)Nc1ccc2c(CC(N)=O)cc(=O)oc2c1)C(C)C) | 1,740 M^-1s^-1 | < 10 M⁻¹ s⁻¹ | < 10 M⁻¹ s⁻¹ | 2,290 M^-1s^-1 | 1,476,000 M^-1s^-1 |  |  |  |  | 
10 | Ac-H[dV]T(Bn)R-{ACC} (SMILES CC(=O)N[C@@H](Cc1c[nH]cn1)C(=O)N[C@@H](C(=O)N[C@H](C(=O)N[C@@H](CCCNC(=N)N)C(=O)Nc1ccc2c(CC(N)=O)cc(=O)oc2c1)[C@@H](C)OCc1ccccc1)C(C)C) | 424 M⁻¹ s⁻¹ | < 10 M⁻¹ s⁻¹ | 130 M⁻¹ s⁻¹ | 480 M⁻¹ s⁻¹ | 158,520 M^-1s^-1 |  |  |  |  | 
11 | Ac-[Dap][Orn][Phe(3-Cl)]C(Bn)-{ACC} (SMILES CC(=O)N[C@@H](CN)C(=O)N[C@@H](CCCN)C(=O)N[C@@H](Cc1cccc(Cl)c1)C(=O)N[C@@H](CSCc1ccccc1)C(=O)Nc1ccc2c(CC(N)=O)cc(=O)oc2c1) |  |  |  |  |  | 45,420,000 M^-1s^-1 | 191 s⁻¹ | 4.28 µM |  | 45,420,000 M-1s-1
12 | Ac-H[dL][Phe(F5)]R-{ACC} (SMILES CC(=O)N[C@@H](Cc1c[nH]cn1)C(=O)N[C@H](CC(C)C)C(=O)N[C@@H](Cc1c(F)c(F)c(F)c(F)c1F)C(=O)N[C@@H](CCCNC(=N)N)C(=O)Nc1ccc2c(CC(N)=O)cc(=O)oc2c1) | 353 M⁻¹ s⁻¹ | < 10 M⁻¹ s⁻¹ | < 10 M⁻¹ s⁻¹ | 135 M⁻¹ s⁻¹ | 405,900 M^-1s^-1 |  |  |  |  | 
13 | Ac-[Dap][Orn][Phe(3-Cl)]K-{ACC} (SMILES CC(=O)N[C@@H](CN)C(=O)N[C@@H](CCCN)C(=O)N[C@@H](Cc1cccc(Cl)c1)C(=O)N[C@@H](CCCCN)C(=O)Nc1ccc2c(CC(N)=O)cc(=O)oc2c1) |  |  |  |  |  | 19,810,000 M^-1s^-1 | 141 s⁻¹ | 7.11 µM |  | 19,810,000 M-1s-1
14 | Ac-His-DVal-Phe(F5)-Lys-ACC | < 10 M⁻¹ s⁻¹ | < 10 M⁻¹ s⁻¹ | < 10 M⁻¹ s⁻¹ | < 10 M⁻¹ s⁻¹ | 231,000 M^-1s^-1 |  |  |  |  | 
15 | Ac-[Dap][Orn][Phe(3-Cl)]K(ClZ)-{ACC} (SMILES CC(=O)N[C@@H](CN)C(=O)N[C@@H](CCCN)C(=O)N[C@@H](Cc1cccc(Cl)c1)C(=O)N[C@@H](CCCCNC(=O)OCc1ccccc1Cl)C(=O)Nc1ccc2c(CC(N)=O)cc(=O)oc2c1) |  |  |  |  |  | 29,280,000 M^-1s^-1 | 86.7 s⁻¹ | 2.98 µM |  | 29,280,000 M-1s-1
16 | Ac-R[dV][Phe(F5)]R-{ACC} (SMILES CC(=O)N[C@@H](CCCNC(=N)N)C(=O)N[C@@H](C(=O)N[C@@H](Cc1c(F)c(F)c(F)c(F)c1F)C(=O)N[C@@H](CCCNC(=N)N)C(=O)Nc1ccc2c(CC(N)=O)cc(=O)oc2c1)C(C)C) | 333 M⁻¹ s⁻¹ | < 10 M⁻¹ s⁻¹ | < 10 M⁻¹ s⁻¹ | 101 M⁻¹ s⁻¹ | 387,300 M^-1s^-1 |  |  |  |  | 
17 | Ac-[Dap]R[Phe(3-Cl)]R-{ACC} (SMILES CC(=O)N[C@@H](CN)C(=O)N[C@@H](CCCNC(=N)N)C(=O)N[C@@H](Cc1cccc(Cl)c1)C(=O)N[C@@H](CCCNC(=N)N)C(=O)Nc1ccc2c(CC(N)=O)cc(=O)oc2c1) |  |  |  |  |  | 25,400,000 M^-1s^-1 |  |  |  | 
18 | Ac-[Dab][Orn][Phe(3-Cl)]R-{ACC} (SMILES CC(=O)N[C@@H](CCN)C(=O)N[C@@H](CCCN)C(=O)N[C@@H](Cc1cccc(Cl)c1)C(=O)N[C@@H](CCCNC(=N)N)C(=O)Nc1ccc2c(CC(N)=O)cc(=O)oc2c1) |  |  |  |  |  | 35,070,000 M^-1s^-1 |  |  |  | 
19 | Ac-[Dap][Orn][Phe(3-Cl)]C(Meb)-{ACC} (SMILES CC(=O)N[C@@H](CN)C(=O)N[C@@H](CCCN)C(=O)N[C@@H](Cc1cccc(Cl)c1)C(=O)N[C@@H](CSCc1ccc(C)cc1)C(=O)Nc1ccc2c(CC(N)=O)cc(=O)oc2c1) |  |  |  |  |  | 41,660,000 M^-1s^-1 | 207 s⁻¹ | 4.99 µM |  | 
20 | Ac-[Dap][Orn][Phe(3-Cl)]L-{ACC} (SMILES CC(=O)N[C@@H](CN)C(=O)N[C@@H](CCCN)C(=O)N[C@@H](Cc1cccc(Cl)c1)C(=O)N[C@@H](CC(C)C)C(=O)Nc1ccc2c(CC(N)=O)cc(=O)oc2c1) |  |  |  |  |  | 11,290,000 M^-1s^-1 | 41.8 s⁻¹ | 3.7 µM |  | 11,290,000 M-1s-1
21 | Ac-[Dab]R[Phe(3-Cl)]R-{ACC} (SMILES CC(=O)N[C@@H](CCN)C(=O)N[C@@H](CCCNC(=N)N)C(=O)N[C@@H](Cc1cccc(Cl)c1)C(=O)N[C@@H](CCCNC(=N)N)C(=O)Nc1ccc2c(CC(N)=O)cc(=O)oc2c1) |  |  |  |  |  | 31,960,000 M^-1s^-1 |  |  |  | 
22 | Ac-Dap-Orn-Phe(3-Cl)-Nle(OBzl)-ACC |  |  |  |  |  | 47,400,000 M^-1s^-1 | 124 s⁻¹ | 2.63 µM | ~4 times | 47,400,000 M-1s-1

Source: publication PMC5896380, “Selective imaging of cathepsin L in breast cancer by fluorescent activity-based probes” (Chemical Science, 2018)
